Measurements reported in US20060263340A1, “Treating gastrointestinal diseases with modulators of retinoic acid” (priority 2005, published 2006).

How the values were obtained:
B cells = assay: In vivo homing of B cells activated with anti-IgM antibody in the presence or absence of retinoic acid; set-up: species or system mouse
Description: FIG. 16 illustrates the effect of retinoic acid (RA) in the homing potential of B cells activated with an anti IgM antibody. Mouse spleen B cells are activated with an anti-IgM antibody, either with or without RA, and in the presence of non-intestinal dendritic cells (D1-DC) to improve the effector B cell viability. After 4 days in culture, naïve, B220^+ and B220^Neg (plasmablasts) effector B cells are assayed for (A) α4β7 (MFI: mean fluorescence intensity). (B) CCR9, and (C-D) migration of B cells activated in the presence or the absence of RA. […] In addition, most of the cells localizing in the small bowel mucosa are B220^Low/Neg (plasmablasts). (D) Bar graphs showing the mean±SE of 2 independent experiments. The homing indices (HI) indicate how much more (or less) B cells activated in the presence of RA migrate with respect to those activated without RA in a given tissue (HI=1 means no difference). […]
Dendritic cells treated with retinoic acid (RA) as described in FIGS. 3-6, or gut derived DC (e.g. mobilized from Peyer's patches or mesenteric lymph nodes), or RA itself (see FIG. 15) can be used to activate naive or effector/memory T and/or B cells. […] After 4-5 days, the resulting effector T and/or B cells are analyzed for their expression of gut or skin homing molecules and migratory behavior (see FIG. 16).

T cells = assay: In vivo migration of T cells activated with D1-DC pretreated with RA; details: T cells activated with D1-DC pretreated with RA for 3 days, injected into mice; average of two independent experiments (FIG. 19B)

Question: For CC1=C(/C=C/C(C)=C/C=C/C(C)=C/C(=O)O)C(C)(C)CCC1 [RA, retinoic acid], which “migration of B cells into the small bowel lamina propria as compared to those activated without RA (homing index)” value (B cells; average of 2 independent experiments (FIG. 16D)) is on record?
Answer: more than 10 times

Question: And the “localization of B cells in the small bowel lamina propria as compared to B cells activated without RA” value (B cells; mouse spleen B cells activated with anti-IgM with RA, in presence of D1-DC, representative homing experiment (FIG. 16C))?
Answer: 24 times

Question: What about the “migration of T cells to the intestinal mucosa as compared to those activated with control D1-DC” value (T cells) of the same compound?
Answer: 200 times
